# Measurements taken from patent US20230312639A1, “GPER PROTEOLYTIC TARGETING CHIMERAS” (University of Iowa Research Foundation, priority 2020, published 2023).
# “Also recorded” adds a separate entry of the source.
# Tests used:
# HA-CXCR4 = HA-CXCR4 (Homo sapiens, UniProt P61073); assay: Immunofluorescence with HA antibody, stably transfected HEK293 cells; format: cell-based; conditions: 100 µM, 1 hour
# HCC1806 cells = assay: Cell cycle analysis, propidium iodide, flow cytometry; format: cell-based, human; conditions: HCC1806, 10 µM, 24 hours
# Description: (§1) FIG. 30. E2-PROTACs promote estrogen receptor-dependent G2/M arrest. E2-PROTAC induced G2/M arrest in human breast cancer cell lines expressing membrane and/or intracellular estrogen receptors. […] Fixed cells were permeabilized and dyed with propidium iodide (PI). Cell cycle data were acquired on a flow cytometer and analyzed using Flow-Jo software. Data are expressed as mean ± SEM (n=3). The percentage of cells in each phase were plotted using Prism 8.0.
# (§2) Cell cycle analysis. […] Following treatment, cells were harvested by trypsinization and washed twice in ice-cold PBS. Cells were then fixed in 70% ethanol at 4° C. for 30 minutes. Fixed cells were pelleted by centrifugation at 230 g for 5 minutes and the cell pellet was incubated in Krishan’s solution (3.8 mM sodium citrate (Fisher Scientific), 0.014 mM propidium iodide (AnaSpec, Fermont, Ca), 1% NP-40 (Sigma) and 2.0 mg/mL RNase A (Fisher Scientific)) for 30 minutes at 37° C. Cells were then centrifuged and washed in PBS prior to analysis using a FacScallibur flow cytometer. The data from flow cytometry were subjected to further analysis by CellQuest software version 3.3. DNA histograms generated indicate the fractions of the cell population in the sub-G1, G0-G1, S, or G2/M phase of the cell cycle.
# (§3) To investigate the biological effect associated with decreased cell viability, cell cycle analysis was performed on the same four cell lines using propidium iodide staining and measured by flow cytometry 24 hours after treatment of cells with 10 µM E2-PROTAC or partial PROTAC (FIG. 30).
# MCF-7 cells = assay: as above; format: cell-based, human; conditions: MCF-7, 10 µM, 24 hours
# Description: as §1, §2, §3
# MDA-MB-231 cells = assay: as above; format: cell-based, human; conditions: MDA-MB-231, 10 µM, 24 hours
# Description: as §1, §2, §3
# SKBR3 cells = assay: as above; format: cell-based, human; conditions: SKBR3, 10 µM, 24 hours
# Description: as §1, §2, §3
# [1] = target: T1, HA-GPER (recombinant GPER) (Homo sapiens, UniProt Q99527); assay: Surface receptor immunostaining / HA immunoblot in HA-GPER cells (Example 1); format: cell-based; conditions: 100 uM, 16 hr
# T1 construct: expressed in transfected cells
# native GPER = target: T2, native GPER (Homo sapiens, UniProt Q99527); assay: Surface GPER immunostaining in human breast cancer cells (SKBR3, HCC-1806); format: cell-based
# T2 construct: Similar results were obtained for native GPER in her2+ and TNBC breast cancer cells; endogenous in cells; host or cells: SKBR3 and HCC-1806 human breast cancer cells
# Experimental: FIG. 4. PROTAC prototype Ul-EP001 reduces surface GPER. Similar results were obtained for native GPER in her2+ and TNBC breast cancer cells.
# FIG. 18. […] Structure (A) and NMR spectrum (B) of UI-EP001. Human SKBR3 (Her2+) and HCC-1806 (TNBC) breast cancer cells were exposed to vehicle (untreated) or 100 µM of partial-PROTAC or E2p-PROTAC, Ul-EP001 for 16 hours. Cells were immunostained with GPER antibodies for 30 minutes and surface GPER was detected using goat anti-rabbit Alexa 594 IgG (red). Nuclei were countertained with DAPI (blue). (C).HA-GPER or HA-β1AR cells were treated with Ul-EP001 for the indicated times and immunoblotted with HA antibody (D) or immunostained for surface receptor (E). Total corrected red fluorescence (red) (TCRF) of treated and untreated HA-GPER or HA-β1AR cells was measured by subtracting cell background. […] Data not shown, no difference in surface GPER expression is measured in cells similarly treated with free 17β-E2.
# To screen GPER-PROTACs, a GPER binding assay that measures a high-affinity (Kd= 2.7 nm), limited capacity, displaceable, single binding site specific for estrogens in plasma membranes of human SKBR3 breast cancer cells that express GPER but lack nuclear ER may be used (Thomas et al., 2005). GPER undergoes an uncommon mechanism of endocyosis that requires neither receptor phosphorylation, interaction with β--arrestin nor lysosomal activity. […]
# ERα = target: T3, ERα (Homo sapiens, UniProt P03372); assay: Immunostaining of endogenous receptors in MCF-7 cells; conditions: MCF-7, 1 hour
# T3 sequence (P03372 1-595): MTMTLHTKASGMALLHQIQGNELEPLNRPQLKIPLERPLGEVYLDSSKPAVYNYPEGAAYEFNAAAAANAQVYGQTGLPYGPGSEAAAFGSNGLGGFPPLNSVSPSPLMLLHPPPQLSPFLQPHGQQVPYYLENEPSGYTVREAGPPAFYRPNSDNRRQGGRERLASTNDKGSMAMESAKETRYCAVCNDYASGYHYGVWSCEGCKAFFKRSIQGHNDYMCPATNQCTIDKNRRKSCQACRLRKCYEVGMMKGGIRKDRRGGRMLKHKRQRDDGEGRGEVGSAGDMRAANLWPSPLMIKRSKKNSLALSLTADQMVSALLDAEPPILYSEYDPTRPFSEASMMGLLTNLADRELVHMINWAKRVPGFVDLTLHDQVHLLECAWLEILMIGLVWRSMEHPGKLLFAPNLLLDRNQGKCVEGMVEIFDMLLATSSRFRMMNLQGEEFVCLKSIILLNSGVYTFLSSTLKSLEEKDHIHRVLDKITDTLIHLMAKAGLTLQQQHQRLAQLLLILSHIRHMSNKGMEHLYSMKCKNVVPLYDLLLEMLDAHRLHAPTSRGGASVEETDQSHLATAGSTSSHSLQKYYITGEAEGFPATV
# GPER = GPER (Homo sapiens, UniProt Q99527); assay: as above; conditions: MCF-7, 1 hour
smiles,measurement,setting,value
Cc1ncsc1-c1ccc(CNC(=O)C2CC(O)CN2C(=O)C(NC(=O)COCCOCCOCCOCC(=O)OC2CCC3C4CCc5cc(O)ccc5C4CCC23C)C(C)(C)C)cc1 (stereo not drawn) [UI-EP001],off-target degradation of HA-CXCR4,HA-CXCR4,without detectable off-target degradation
same,cell cycle distribution,HCC1806 cells,dramatic increase in the G2/M peak
same,cell cycle distribution,MCF-7 cells,dramatic increase in the G2/M peak
same,cell cycle distribution,MDA-MB-231 cells,This shift was not observed
same,cell cycle distribution,SKBR3 cells,dramatic increase in the G2/M peak
same,surface recombinant GPER / HA-GPER expression,[1],causes downmodulation of surface recombinant GPER; also recorded: Significant degradation of GPER was observed
same,expression of native GPER,native GPER,downmodulates the expression of native GPER
same,nuclear ERα expression,ERα,Clear site-specific reduction
same,intracellular GPER expression,GPER,Clear site-specific reduction
